The source made the active and inactive calls. No cut-off for these calls is given here.
Columns and labels:
[1] = tested on: Mesenchymal stem cells; test: Anti-adipogenic activity in insulin/dexamthasone/pioglitazone/IBMX differentiated human BMMSC cells assessed as downregulation of adiponectin protein secretion at 1 uM by ELISA; assay type: functional, cell-based
[2] = tested on: Mesenchymal stem cells; test: Inhibition of SULF2 mRNA expression in human BMMSC cells at 0.1 uM by RT-qPCR analysis; assay type: functional, cell-based
[3] = tested on: Mesenchymal stem cells; test: Inhibition of SULF2 mRNA expression in human BMMSC cells by RT-qPCR analysis; assay type: functional, cell-based; conditions: dose 0.01-1 µM
[4] = tested on: Mesenchymal stem cells; test: Effect on osteogenesis in ascorbic acid/dexamethasone/beta-glycerol phosphate differentiated human BMMSC cells; assay type: functional, cell-based
[5] = tested on: Mesenchymal stem cells; test: Cytotoxicity against human BMMSC cells assessed as effect on cell viability upto 1 uM incubated for 24 hrs by CCK8 assay; assay type: toxicity, cell-based
[6] = tested on: Mesenchymal stem cells; test: Anti-adipogenic activity in insulin/dexamthasone/pioglitazone/IBMX differentiated human BMMSC cells assessed as downregulation of adiponectin protein secretion by ELISA; assay type: functional, cell-based
[7] = tested on: DNA; test: Binding affinity to N-terminal of 10-mer c-DNA (unknown origin) assessed as melting temperature at 4 uM by UV-Vis spectrophotometric analysis; assay type: nucleic-acid assay
[8] = tested on: DNA; test: Binding affinity to C-terminal of 10-mer c-DNA (unknown origin) assessed as melting temperature at 4 uM by UV-Vis spectrophotometric analysis; assay type: nucleic-acid assay
[9] = tested on: DNA; test: Binding affinity to 10-mer DNA (unknown origin) assessed as melting temperature at 4 uM by UV-Vis spectrophotometric analysis; assay type: nucleic-acid assay

For Cc1cn(CC(=O)N(CCNC(=O)CN(CCNC(=O)CN(CCNC(=O)CN(CCNC(=O)CN(CCNC(=O)CN(CCNC(=O)CN(CCNC(=O)CN(CCNC(=O)CN(CCNC(=O)CN(CCNC(=O)CN(CCNC(=O)CN(CCNC(=O)CN(CCNC(=O)CN(CCNC(=O)CN(CCNC(=O)CN(CCNC(=O)CN(CCNC(=O)CN(CCNC(=O)CN(CCNC(=O)CN(CCNC(=O)OCCC2c3ccccc3-c3ccccc32)C(=O)Cn2cnc3c(=O)[nH]c(N)nc32)C(=O)Cn2cnc3c(=O)[nH]c(NCCCCCCN)nc32)C(=O)Cn2cnc3c(=O)[nH]c(N)nc32)C(=O)Cn2cnc3c(=O)[nH]c(N)nc32)C(=O)Cn2cc3cc(COCCN)[nH]c3nc2=O)C(=O)Cn2ccc(N)nc2=O)C(=O)Cn2ccc(N)nc2=O)C(=O)Cn2cnc3c(N)nc(NCCCCCN)nc32)C(=O)Cn2cc(C)c(=O)[nH]c2=O)C(=O)Cn2ccc(N)nc2=O)C(=O)Cn2cc(C)c(=O)[nH]c2=O)C(=O)Cn2cc(C)c(=O)[nH]c2=O)C(=O)Cn2cc3cc(COCCN)[nH]c3nc2=O)C(=O)Cn2cc(C)c(=O)[nH]c2=O)C(=O)Cn2cc(C)c(=O)[nH]c2=O)C(=O)Cn2cc(C)c(=O)[nH]c2=O)C(=O)Cn2cc(C)c(=O)[nH]c2=O)C(=O)Cn2cc(C)c(=O)[nH]c2=O)C(=O)Cn2cc(C)c(=O)[nH]c2=O)CC(N)=O)c(=O)[nH]c1=O, the Activity [1] was “Active”, the inhibition [2] was “Mild_effect” and the inhibition [3] was “Dose-dependent-effect”. The Activity [4] was “inactive”, the Activity [5] was “Non-toxic” and the IC50 [6] was greater than 1000 nM. The Tm [7] was greater than 90 °C.

For Cc1cn(CC(=O)N(CCNC(=O)CN(CCNC(=O)CN(CCNC(=O)CN(CCNC(=O)CN(CCNC(=O)CN(CCNC(=O)CN(CCNC(=O)CN(CCNC(=O)CN(CCNC(=O)CN(CCNC(=O)CN(CCNC(=O)CN(CCNC(=O)CN(CCNC(=O)CN(CCNC(=O)CN(CCNC(=O)CN(CCNC(=O)CN(CCNC(=O)CN(CCNC(=O)OCCC2c3ccccc3-c3ccccc32)C(=O)Cn2cc(C)c(=O)[nH]c2=O)C(=O)Cn2cnc3c(=O)[nH]c(N)nc32)C(=O)Cn2ccc(N)nc2=O)C(=O)Cn2cnc3c(N)nc(NCCCCCN)nc32)C(=O)Cn2cc(C)c(=O)[nH]c2=O)C(=O)Cn2cnc3c(=O)[nH]c(N)nc32)C(=O)Cn2cnc3c(=O)[nH]c(N)nc32)C(=O)Cn2cnc3c(N)nc(NCCCCCN)nc32)C(=O)Cn2cnc3c(N)ncnc32)C(=O)Cn2ccc(N)nc2=O)C(=O)Cn2cc3cc(COCCN)[nH]c3nc2=O)C(=O)Cn2cc(C)c(=O)[nH]c2=O)C(=O)Cn2cnc3c(=O)[nH]c(N)cc32)C(=O)Cn2ccc(N)nc2=O)C(=O)Cn2cnc3c(N)nc(NCCCCCN)nc32)C(=O)Cn2cnc3c(N)ncnc32)C(=O)Cn2cnc3c(=O)[nH]c(NCCCCCCN)nc32)CC(=O)NCCN(CC(=O)NCCN(CC(N)=O)C(=O)Cn2cnc3c(N)ncnc32)C(=O)Cn2ccc(N)nc2=O)c(=O)[nH]c1=O, the Tm [8] was 51.1 °C, the inhibition [2] was “inactive” and the Activity [4] was “inactive”. For the same compound, the Activity [5] was “Non-toxic” and the Tm [7] was 66.4 °C.

For NCCCCCNc1nc(N)c2ncn(CC(=O)N(CCNC(=O)CN(CCNC(=O)CN(CCNC(=O)CN(CCNC(=O)CN(CCNC(=O)CN(CCN)C(=O)Cn3cnc4c(N)ncnc43)C(=O)Cn3cnc4c(=O)[nH]c(N)nc43)C(=O)Cn3ccc(N)nc3=O)C(=O)Cn3cnc4c(N)ncnc43)C(=O)Cn3ccc(N)nc3=O)CC(=O)NCCN(CC(=O)NCCN(CC(=O)NCCN(CC(=O)NCCN(CC(N)=O)C(=O)Cn3cnc4c(N)ncnc43)C(=O)Cn3ccc(N)nc3=O)C(=O)Cn3cnc4c(N)ncnc43)C(=O)Cn3cnc4c(=O)[nH]c(N)nc43)c2n1, the Tm [9] was 69.2 °C.

NCCCCCCNc1nc2c(ncn2CC(=O)N(CCNC(=O)CN(CCNC(=O)CN(CCNC(=O)CN(CCNC(=O)CN(CCNC(=O)CN(CCN)C(=O)Cn2cnc3c(=O)[nH]c(N)nc32)C(=O)Cn2ccc(N)nc2=O)C(=O)Cn2cnc3c(N)ncnc32)C(=O)Cn2cnc3c(=O)[nH]c(NCCCCCCN)nc32)C(=O)Cn2cnc3c(N)nc(NCCCCCN)nc32)CC(=O)NCCN(CC(=O)NCCN(CC(=O)NCCN(CC(=O)NCCN(CC(N)=O)C(=O)Cn2cnc3c(=O)[nH]c(N)nc32)C(=O)Cn2cnc3c(N)ncnc32)C(=O)Cn2cnc3c(=O)[nH]c(NCCCCCCN)nc32)C(=O)Cn2ccc(N)nc2=O)c(=O)[nH]1 gave a Tm [9] of 74.8 °C.

In the case of NCCOCc1cc2cn(CC(=O)N(CCNC(=O)CN(CCNC(=O)CN(CCNC(=O)CN(CCNC(=O)CN(CCN)C(=O)Cn3ccc(N)nc3=O)C(=O)Cn3cnc4c(N)ncnc43)C(=O)Cn3cnc4c(=O)[nH]c(N)nc43)C(=O)Cn3cnc4c(N)ncnc43)CC(=O)NCCN(CC(=O)NCCN(CC(=O)NCCN(CC(=O)NCCN(CC(=O)NCCN(CC(N)=O)C(=O)Cn3ccc(N)nc3=O)C(=O)Cn3cnc4c(=O)[nH]c(N)nc43)C(=O)Cn3cnc4c(N)ncnc43)C(=O)Cn3cnc4c(=O)[nH]c(N)nc43)C(=O)Cn3cnc4c(N)ncnc43)c(=O)nc2[nH]1, the Tm [9] is reported as 77.2 °C.

NCCN(CC(=O)NCCN(CC(=O)NCCN(CC(=O)NCCN(CC(=O)NCCN(CC(=O)NCCN(CC(=O)NCCN(CC(=O)NCCN(CC(=O)NCCN(CC(=O)NCCN(CC(N)=O)C(=O)Cn1ccc(N)nc1=O)C(=O)Cn1cnc2c(=O)[nH]c(N)nc21)C(=O)Cn1cnc2c(N)ncnc21)C(=O)Cn1cnc2c(=O)[nH]c(N)nc21)C(=O)Cn1cnc2c(N)ncnc21)C(=O)Cn1ccc(N)nc1=O)C(=O)Cn1cnc2c(N)ncnc21)C(=O)Cn1cnc2c(=O)[nH]c(N)nc21)C(=O)Cn1cnc2c(N)ncnc21)C(=O)Cn1ccc(N)nc1=O gave a Tm [9] of 71 °C.

Cc1cn(CC(=O)N(CCN)CC(=O)NCCN(CC(=O)NCCN(CC(=O)NCCN(CC(=O)NCCN(CC(=O)NCCN(CC(=O)NCCN(CC(=O)NCCN(CC(=O)NCCN(CC(=O)NCCN(CC(N)=O)C(=O)Cn2cnc3c(N)ncnc32)C(=O)Cn2cc3cc(COCCN)[nH]c3nc2=O)C(=O)Cn2cnc3c(=O)[nH]c(N)nc32)C(=O)Cn2cnc3c(N)ncnc32)C(=O)Cn2cc3cc(COCCN)[nH]c3nc2=O)C(=O)Cn2cnc3c(N)ncnc32)C(=O)Cn2cnc3c(=O)[nH]c(N)nc32)C(=O)Cn2cnc3c(N)ncnc32)C(=O)Cn2ccc(N)nc2=O)c(=O)[nH]c1=O showed a Tm [9] of 76.4 °C.

In the case of Cc1cn(CC(=O)N(CCN)CC(=O)NCCN(CC(=O)NCCN(CC(=O)NCCN(CC(=O)NCCN(CC(=O)NCCN(CC(=O)NCCN(CC(=O)NCCN(CC(=O)NCCN(CC(=O)NCCN(CC(N)=O)C(=O)Cn2cnc3c(N)ncnc32)C(=O)Cn2ccc(N)nc2=O)C(=O)Cn2cnc3c(=O)[nH]c(N)nc32)C(=O)Cn2cnc3c(N)ncnc32)C(=O)Cn2ccc(N)nc2=O)C(=O)Cn2cnc3c(N)ncnc32)C(=O)Cn2cnc3c(=O)[nH]c(N)nc32)C(=O)Cn2cnc3c(N)ncnc32)C(=O)Cn2ccc(N)nc2=O)c(=O)[nH]c1=O, the Tm [9] is reported as 66.2 °C.

With NCCCCCNc1nc(N)c2ncn(CC(=O)N(CCNC(=O)CN(CCNC(=O)CN(CCNC(=O)CN(CCNC(=O)CN(CCN)C(=O)Cn3cnc4c(=O)[nH]c(N)nc43)C(=O)Cn3ccc(N)nc3=O)C(=O)Cn3cnc4c(N)ncnc43)C(=O)Cn3cnc4c(=O)[nH]c(N)nc43)CC(=O)NCCN(CC(=O)NCCN(CC(=O)NCCN(CC(=O)NCCN(CC(=O)NCCN(CC(N)=O)C(=O)Cn3cnc4c(=O)[nH]c(N)nc43)C(=O)Cn3cnc4c(N)ncnc43)C(=O)Cn3cnc4c(=O)[nH]c(N)nc43)C(=O)Cn3ccc(N)nc3=O)C(=O)Cn3cnc4c(=O)[nH]c(N)nc43)c2n1 the Tm [9] was 75.9 °C.

For Cc1cn(CC(=O)N(CCNC(=O)CN(CCNC(=O)CN(CCNC(=O)CN(CCNC(=O)CN(CCNC(=O)CN(CCNC(=O)CN(CCNC(=O)CN(CCNC(=O)CN(CCNC(=O)CN(CCNC(=O)CN(CCNC(=O)CN(CCNC(=O)CN(CCNC(=O)CN(CCNC(=O)CN(CCNC(=O)CN(CCNC(=O)CN(CCNC(=O)CN(CCNC(=O)CN(CCNC(=O)OCCC2c3ccccc3-c3ccccc32)C(=O)Cn2ccc(N)nc2=O)C(=O)Cn2cc3cc(COCCN)[nH]c3nc2=O)C(=O)Cn2ccc(N)nc2=O)C(=O)Cn2cc(C)c(=O)[nH]c2=O)C(=O)Cn2cnc3c(=O)[nH]c(NCCCCCCN)nc32)C(=O)Cn2ccc(N)nc2=O)C(=O)Cn2cc(C)c(=O)[nH]c2=O)C(=O)Cn2ccc(N)nc2=O)C(=O)Cn2cnc3c(=O)[nH]c(NCCCCCN)nc32)C(=O)Cn2ccc(N)nc2=O)C(=O)Cn2ccc(N)nc2=O)C(=O)Cn2cc(C)c(=O)[nH]c2=O)C(=O)Cn2cnc3c(=O)[nH]c(NCCCCCCN)nc32)C(=O)Cn2cc(C)c(=O)[nH]c2=O)C(=O)Cn2ccc(N)nc2=O)C(=O)Cn2ccc(N)nc2=O)C(=O)Cn2cnc3c(=O)[nH]c(NCCCCCCN)nc32)C(=O)Cn2cnc3c(=O)[nH]c(N)nc32)CC(=O)NCCN(N)C(=O)Cn2cnc3c(N)ncnc32)c(=O)[nH]c1=O, the Tm [8] was 63.5 °C, the inhibition [2] was “inactive” and the Activity [4] was “inactive”. For the same compound, the Activity [5] was “Non-toxic” and the Tm [7] was 77 °C.

Work on NCCN(CC(=O)NCCN(CC(=O)NCCN(CC(=O)NCCN(CC(=O)NCCN(CC(=O)NCCN(CC(=O)NCCN(CC(=O)NCCN(CC(=O)NCCN(CC(=O)NCCN(CC(N)=O)C(=O)Cn1cnc2c(N)ncnc21)C(=O)Cn1ccc(N)nc1=O)C(=O)Cn1cnc2c(N)ncnc21)C(=O)Cn1cnc2c(=O)[nH]c(N)nc21)C(=O)Cn1cnc2c(N)ncnc21)C(=O)Cn1ccc(N)nc1=O)C(=O)Cn1cnc2c(N)ncnc21)C(=O)Cn1ccc(N)nc1=O)C(=O)Cn1cnc2c(=O)[nH]c(N)nc21)C(=O)Cn1cnc2c(N)ncnc21 yielded a Tm [9] of 65.2 °C.

In the case of NCCCCCCNc1nc2c(ncn2CC(=O)N(CCN)CC(=O)NCCN(CC(=O)NCCN(CC(=O)NCCN(CC(=O)NCCN(CC(=O)NCCN(CC(=O)NCCN(CC(=O)NCCN(CC(=O)NCCN(CC(=O)NCCN(CC(N)=O)C(=O)Cn2cnc3c(=O)[nH]c(N)nc32)C(=O)Cn2cnc3c(N)ncnc32)C(=O)Cn2cnc3c(=O)[nH]c(N)nc32)C(=O)Cn2ccc(N)nc2=O)C(=O)Cn2cnc3c(=O)[nH]c(N)nc32)C(=O)Cn2cnc3c(N)nc(NCCCCCN)nc32)C(=O)Cn2cnc3c(=O)[nH]c(N)nc32)C(=O)Cn2cnc3c(N)ncnc32)C(=O)Cn2ccc(N)nc2=O)c(=O)[nH]1, the Tm [9] is reported as 76.9 °C.
